Data set [1] deals with T1, Relaxin receptor 1 (Homo sapiens) (UniProt Q9HBX9).
T1 sequence (whole entry): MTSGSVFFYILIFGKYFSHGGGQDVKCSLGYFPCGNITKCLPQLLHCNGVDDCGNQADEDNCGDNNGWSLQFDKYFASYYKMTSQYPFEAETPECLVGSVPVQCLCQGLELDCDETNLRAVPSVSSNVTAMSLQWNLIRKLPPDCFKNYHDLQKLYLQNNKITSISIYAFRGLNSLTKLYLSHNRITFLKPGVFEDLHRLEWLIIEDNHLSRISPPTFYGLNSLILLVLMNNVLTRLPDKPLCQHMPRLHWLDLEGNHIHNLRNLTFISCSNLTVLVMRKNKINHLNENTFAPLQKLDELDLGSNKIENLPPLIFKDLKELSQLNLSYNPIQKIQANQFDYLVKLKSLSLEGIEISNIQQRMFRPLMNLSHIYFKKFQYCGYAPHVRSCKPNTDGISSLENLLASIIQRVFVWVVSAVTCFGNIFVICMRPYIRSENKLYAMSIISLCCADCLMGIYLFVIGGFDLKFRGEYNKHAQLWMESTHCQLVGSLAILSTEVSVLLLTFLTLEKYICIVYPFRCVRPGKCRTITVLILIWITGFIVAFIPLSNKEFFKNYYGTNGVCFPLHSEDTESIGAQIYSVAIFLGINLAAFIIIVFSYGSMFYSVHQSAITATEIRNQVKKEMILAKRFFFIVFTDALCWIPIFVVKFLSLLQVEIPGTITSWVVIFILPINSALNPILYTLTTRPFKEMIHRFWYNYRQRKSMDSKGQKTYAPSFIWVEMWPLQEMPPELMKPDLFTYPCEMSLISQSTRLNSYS
The data set is described as follows: Selectivity ratio of EC50 for agonist activity at RXFP1 endogenously expressed in human OVCAR-5 cells in presence of 2 % HSA to EC50 for agonist activity at RXFP1 endogenously expressed in human OVCAR-5 cells in absence of HSA. The format is cell-based.

Data set [2] deals with T1, Relaxin receptor 1 (Homo sapiens). Description: Agonist activity at RXFP1 endogenously expressed in human OVCAR-5 cells assessed as increase in IBMX-induced cAMP accumulation pretreated with IBMX for 40 mins followed by compound addition and measured after 30 mins in presence of 2 % HSA by HTRF assay relative to control. The following applies: filed as agonist. Format: functional, cell-based. (cAMP levels reflect the balance of adenylyl cyclase and phosphodiesterase activity.)

Data set [3] in a line: Stability in human blood assessed as parent compound at 5 uM remaining after 4 hrs. Format: ADME, tissue-based. Particulars: read-out: Stabilty.
Data set [4] is described as follows: Stability in rat blood assessed as parent compound at 5 uM remaining after 4 hrs. The format is ADME, tissue-based. Particulars: read-out: Stabilty.
In data set [5] the target is T1, Relaxin receptor 1 (Homo sapiens). The data set is described as follows: Agonist activity at RXFP1 endogenously expressed in human OVCAR-5 cells assessed as increase in IBMX-induced cAMP accumulation pretreated with IBMX for 40 mins followed by compound addition and measured after 30 mins by HTRF assay relative to relaxin. Format: functional, cell-based. Particulars: filed as agonist.

The target of data set [6] is T2, Relaxin receptor 1 (Homo sapiens, UniProt Q9HBX9).
T2 sequence (Q9HBX9 whole entry): T1 sequence (whole entry)
Description: Agonist activity at RXFP1 endogenously expressed in human OVCAR-5 cells assessed as increase in IBMX-induced cAMP accumulation pretreated with IBMX for 40 mins followed by compound addition and measured after 30 mins by HTRF assay. The format is functional, cell-based.

The nature of data set [7]: Half life in Sprague-Dawley rat at 1 mg/kg, iv measured upto 72 hrs by LC-HRMS analysis. The format is ADME, organism-based. Particulars: in vivo.
The nature of data set [8]: Bioavailability in Sprague-Dawley rat at 3 mg/kg, sc measured upto 72 hrs by LC-HRMS analysis. The format is ADME, organism-based. The following applies: in vivo.
The target in data set [9] is T2, Relaxin receptor 1. The data set is described as follows: Agonist activity at RXFP1 endogenously expressed in human OVCAR-5 cells assessed as increase in IBMX-induced cAMP accumulation pretreated with IBMX for 40 mins followed by compound addition and measured after 30 mins in presence of 2 % HSA by HTRF assay. The format is functional, cell-based.

*1 amine or outer side, *2 acyl side, *3 side chain or, on linkers, in order; H or OH if unused. Where a SMILES comes first, the peptide text is derived from it. [ ]: non-standard residue; d: D form. The star is where a group is joined. X1 = CCCCCCCCCCCCCCCCC(=O)[C@H](CCC(N)=O)N*; β2hAla(2S) = C[C@@H](CN[*:1])C(=O)[*:2]; hLys = NCCCCC[C@H](N)C(=O)O; Nle = CCCC[C@H](N)C(=O)O; AEEA = NCCOCCOCC(=O)O

Regarding `CCCCCCCCCCCCCCCCC(=O)[C@H](CCC(N)=O)NC(=O)[C@H](CCC(=O)O)NC(=O)[C@H](CCC(=O)O)NC(=O)[C@H](CCCCN)NC(=O)COCCOCCNC(=O)COCCOCCNC(=O)COCCOCCNC(=O)[C@H](CCCCCNC(C)=O)NC(=O)[C@H](CCCCN)NC(=O)[C@H](CCCCN)NC(=O)[C@H](CCCNC(=N)N)NC(=O)[C@@H](C)CNC(=O)[C@H](CO)NC(=O)[C@H](Cc1c[nH]c2ccccc12)NC(=O)[C@@H](NC(=O)[C@H](CO)NC(=O)[C@H](CCCCCNC(C)=O)NC(=O)[C@H](CCCCN)NC(=O)[C@H](CCCC)NC(=O)[C@H](CCSC)NC(=O)CNC(=O)[C@H](CCC(=O)O)NC(=O)[C@@H](C)CNC(=O)[C@@H](C)CNC(=O)[C@@H](NC(=O)[C@H](CCCCCNC(C)=O)NC(=O)[C@H](CCCCN)NC(=O)[C@H](C)NC(=O)[C@H](CCCNC(=N)N)NC(=O)[C@@H](NC(=O)[C@H](CCCCN)NC(=O)[C@H](CCC(=O)O)NC(=O)[C@H](CCCNC(=N)N)NC(=O)[C@H](CCC(=O)O)NC(=O)CNC(=O)[C@H](CCC(=O)O)NC(=O)[C@H](CC(C)C)NC(C)=O)C(C)C)[C@@H](C)CC)[C@@H](C)O` (Ac-LEGEREKVRAK[hLys](Ac)I[β2hAla(2S)][β2hAla(2S)]EGM[Nle]K[hLys](Ac)STWS[β2hAla(2S)]RKK[hLys](Ac)[AEEA][AEEA][AEEA]KEE-X1), the Ratio EC50 in data set [1] turned out to be 87. Also, the maximal effect (Emax) (usually the size of the effect at its maximum, as opposed to the concentration needed) amounted to 96% in [2] and 80% in data set [5]. Further, the results for the remaining at 4 h, 5 µM in [3] and in [4] were 87% and 79%, respectively. Besides, the results for the EC50 on Relaxin receptor 1 [6] and at Relaxin receptor 1 [9] were 1 nM and 87 nM, respectively. For the same molecule, the half-life (usually the time needed for the level to fall by half in the phase considered) in [7] was 5.7 h. For the same molecule, the bioavailability – broadly, dose-corrected exposure relative to a reference, in per cent – in data set [8] came out at 47%.
With `CCCCCCCCCCCCCCCCC(=O)[C@H](CCC(N)=O)NC(=O)[C@H](CCC(=O)O)NC(=O)[C@H](CCC(=O)O)NC(=O)[C@H](CCCCN)NC(=O)[C@H](CCCCN)NC(=O)[C@H](CCCNC(=N)N)NC(=O)[C@@H](C)CNC(=O)[C@H](CO)NC(=O)[C@H](Cc1c[nH]c2ccccc12)NC(=O)[C@@H](NC(=O)[C@H](CO)NC(=O)[C@H](CCSC)NC(=O)CNC(=O)[C@H](CCC(=O)O)NC(=O)[C@@H](C)CNC(=O)[C@@H](C)CNC(=O)[C@@H](NC(=O)[C@H](CCC(N)=O)NC(=O)[C@H](C)NC(=O)[C@H](CCCNC(=N)N)NC(=O)[C@@H](NC(=O)[C@H](CCCCN)NC(=O)[C@H](CCC(=O)O)NC(=O)[C@H](CCCNC(=N)N)NC(=O)[C@H](CCC(=O)O)NC(=O)CNC(=O)[C@H](CCC(=O)O)NC(=O)[C@H](CC(C)C)NC(C)=O)C(C)C)[C@@H](C)CC)[C@@H](C)O` (Ac-LEGEREKVRAQI[β2hAla(2S)][β2hAla(2S)]EGMSTWS[β2hAla(2S)]RKKEE-X1), the Ratio EC50 in data set [1] was above 170. Also, the remaining at 4 h, 5 µM in data set [3] amounted to 91%; in [4], 93%. In [5], the maximum response (Emax) was 97%. Also, the EC50 – broadly, the concentration giving half of the maximal effect – was 17.6 nM at Relaxin receptor 1 [6] and above 3000 nM at Relaxin receptor 1 [9]. The molecule also gave a half-life in data set [7] of 4.3 h.

The values above are taken from ChEMBL document CHEMBL4732190, “Identification of Potent and Long-Acting Single-Chain Peptide Mimetics of Human Relaxin-2 for Cardiovascular Diseases” (J Med Chem, 2021).
